# Measurements from US20070128217A1 (priority 2003, published 2007).
# How the values were obtained:
# [1] = system: antibodies in sera from SARS patients (sera 1a, 1b, 2, 6, 37, 62, London, SARS-yellow, SARS-green); assay type: binding, human; parameters: Binding of serum 6 to linear peptides of protein X1 of SARS-CoV Urbani / Binding of serum 37 to linear peptides of protein X1 of SARS-CoV Urbani / Binding of serum 6 to looped/cyclic peptide (PEPSCAN-ELISA) / Binding of serum 37 to looped/cyclic peptide (PEPSCAN-ELISA) / Binding of serum 37 to looped/cyclic peptides of protein X1 of SARS-CoV Urbani / Binding of serum 6 to linear peptides of protein X2 / Binding of serum 37 to linear peptides of protein X2 / Binding of serum 37 to looped/cyclic peptides of protein X2 of SARS-CoV Urbani / Binding of serum 6 to linear peptides of protein M of SARS-CoV Urbani / Binding of serum 37 to linear peptides of protein M of SARS-CoV Urbani / Binding of serum 6 to looped/cyclic peptides of protein M of SARS-CoV Urbani / Binding of serum 37 to looped/cyclic peptides of protein M of SARS-CoV Urbani / Binding of serum 6 to linear peptides of protein X3 of SARS-CoV Urbani / Binding of serum 37 to linear peptides of protein X3 of SARS-CoV Urbani / Binding of serum 37 to looped/cyclic peptides of protein X3 of SARS-CoV Urbani / Binding of serum 6 to linear peptides of protein X4 of SARS-CoV Urbani / Binding of serum 37 to linear peptides of protein X4 of SARS-CoV Urbani / Binding of serum 37 to looped/cyclic peptides of protein X4 of SARS-CoV Urbani / Binding of serum 6 to linear peptides of protein X5 of SARS-CoV Urbani / Binding of serum 37 to linear peptides of protein X5 of SARS-CoV Urbani / Binding of serum 37 to looped/cyclic peptides of protein X5 of SARS-CoV Urbani / Binding of serum 6 to linear peptides of protein N of SARS-CoV Urbani / Binding of serum 37 to linear peptides of protein N of SARS-CoV Urbani / Binding of serum 6 to linear peptide (PEPSCAN-ELISA) / Binding of serum 1a to looped/cyclic peptides of protein N of SARS-CoV Urbani / Binding of serum 1b to looped/cyclic peptides of protein N of SARS-CoV Urbani / Binding of serum 2 to looped/cyclic peptides of protein N of SARS-CoV Urbani / Binding of serum 6 to looped/cyclic peptides of protein N of SARS-CoV Urbani / Binding of serum 37 to looped/cyclic peptides of protein N of SARS-CoV Urbani / Binding of serum 62 to looped/cyclic peptides of protein N of SARS-CoV Urbani / Binding of serum London to looped/cyclic peptides of protein N of SARS-CoV Urbani / Binding of serum SARS-green to looped/cyclic peptides of protein N of SARS-CoV Urbani: unit not given here
# [2] = system: rabbit serum obtained by immunizing a rabbit with the SARS-CoV strain Frankfurt 1; assay type: binding; parameters: Binding of a rabbit serum to linear peptides / Binding of a rabbit serum to looped peptides / Rabbit serum linear peptides / Rabbit serum looped peptides / Binding of a rabbit serum to linear peptides of protein N of SARS-CoV Urbani (Rabbit serum linear peptides) / Binding of a rabbit serum to looped/cyclic peptides of protein N of SARS-CoV Urbani (Rabbit serum looped peptides): unit not given here
# [3] = system: control sera (pooled serum of ten healthy LUMC hospital workers; commercial negative donor pooled serum from the Dutch bloodbank); assay type: binding, human; parameters: Binding of Control serum LUMC to linear peptides / Binding of Control serum Blood-bank to linear peptides / Binding of Control serum LUMC to looped peptides / Binding of Control Serum Blood-Bank to Looped peptides / Binding of Control serum LUMC to linear peptides of the protein M of SARS-CoV Urbani / Binding of Control serum Blood-bank to linear peptides of the protein M of SARS-CoV Urbani / Binding of Control serum LUMC to looped peptides of the protein M of SARS-CoV Urbani / Binding of Control Serum Blood-Bank to Looped peptides of the protein M of SARS-CoV Urbani: unit not given here
sequence,measurement,setting,value
YHITVSQIQLSLLKV,Binding of serum 1a to linear peptides of protein X2,[1],0.6
same,Binding of serum 1a to looped/cyclic peptides of protein X2 of SARS-CoV Urbani,[1],0.4
same,Binding of serum 1b to linear peptides of protein X2,[1],0.5
same,Binding of serum 1b to looped/cyclic peptides of protein X2 of SARS-CoV Urbani,[1],0.4
same,Binding of serum 2 to linear peptides of protein X2,[1],0.5
same,Binding of serum 2 to looped/cyclic peptides of protein X2 of SARS-CoV Urbani,[1],0.4
same,Binding of serum 6 to linear peptides of protein X2,[1],0.5
same,Binding of serum 6 to looped/cyclic peptides of protein X2 of SARS-CoV Urbani,[1],0.1
same,Binding of serum 37 to linear peptides of protein X2,[1],0.7
same,Binding of serum 37 to looped/cyclic peptides of protein X2 of SARS-CoV Urbani,[1],0.4
same,Binding of serum 62 to linear peptides of protein X2,[1],0.5
same,Binding of serum 62 to looped/cyclic peptides of protein X2 of SARS-CoV Urbani,[1],0.5
same,Binding of serum London to linear peptides of protein X2,[1],0.4
same,Binding of serum London to looped/cyclic peptides of protein X2 of SARS-CoV Urbani,[1],0.2
same,Binding of serum SARS-green to linear peptides of protein X2,[1],0.1
same,Binding of serum SARS-green to looped/cyclic peptides of protein X2 of SARS-CoV Urbani,[1],0.3
same,Binding of serum SARS-yellow to linear peptides of protein X2,[1],0.6
same,Binding of serum SARS-yellow to looped/cyclic peptides of protein X2 of SARS-CoV Urbani,[1],0.4
same,Binding of a rabbit serum to linear peptides,[2],0.8
same,Binding of a rabbit serum to looped peptides,[2],0.3
same,Binding of Control Serum Blood-Bank to Looped peptides,[3],0.3
same,Binding of Control serum Blood-bank to linear peptides,[3],0.6
same,Binding of Control serum LUMC to linear peptides,[3],0.7
same,Binding of Control serum LUMC to looped peptides,[3],0.4
YKGFQFICNLLLLFV,Binding of serum 1a to linear peptides of protein X1 of SARS-CoV Urbani,[1],0.9
same,Binding of serum 1a to looped/cyclic peptide (PEPSCAN-ELISA),[1],0.3
same,Binding of serum 1b to linear peptides of protein X1 of SARS-CoV Urbani,[1],0.8
same,Binding of serum 1b to looped/cyclic peptide (PEPSCAN-ELISA),[1],0.0
same,Binding of serum 2 to linear peptides of protein X1 of SARS-CoV Urbani,[1],0.9
same,Binding of serum 2 to looped/cyclic peptide (PEPSCAN-ELISA),[1],0.0
same,Binding of serum 6 to linear peptides of protein X1 of SARS-CoV Urbani,[1],0.9
same,Binding of serum 6 to looped/cyclic peptide (PEPSCAN-ELISA),[1],0.3
same,Binding of serum 37 to linear peptides of protein X1 of SARS-CoV Urbani,[1],0.7
same,Binding of serum 37 to looped/cyclic peptide (PEPSCAN-ELISA),[1],0.2
same,Binding of serum 62 to linear peptides of protein X1 of SARS-CoV Urbani,[1],1.0
same,Binding of serum 62 to looped/cyclic peptide (PEPSCAN-ELISA),[1],0.3
same,Binding of serum London to linear peptides of protein X1 of SARS-CoV Urbani,[1],0.8
same,Binding of serum London to looped/cyclic peptide (PEPSCAN-ELISA),[1],0.2
same,Binding of serum SARS-green to linear peptides of protein X1 of SARS-CoV Urbani,[1],0.4
same,Binding of serum SARS-green to looped/cyclic peptide (PEPSCAN-ELISA),[1],0.3
same,Binding of serum SARS-yellow to linear peptides of protein X1 of SARS-CoV Urbani,[1],0.6
same,Binding of serum SARS-yellow to looped/cyclic peptide (PEPSCAN-ELISA),[1],0.0
same,Binding of a rabbit serum to linear peptides,[2],0.3
same,Binding of a rabbit serum to looped peptides,[2],0.0
same,Binding of Control Serum Blood-Bank to Looped peptides,[3],0.4
same,Binding of Control serum Blood-bank to linear peptides,[3],1.0
same,Binding of Control serum LUMC to linear peptides,[3],0.8
same,Binding of Control serum LUMC to looped peptides,[3],0.4
YLYALIYFLQCINAC,Binding of serum 1a to linear peptides of protein X1 of SARS-CoV Urbani,[1],0.7
same,Binding of serum 1a to looped/cyclic peptide (PEPSCAN-ELISA),[1],0.4
same,Binding of serum 1b to linear peptides of protein X1 of SARS-CoV Urbani,[1],0.5
same,Binding of serum 1b to looped/cyclic peptide (PEPSCAN-ELISA),[1],0.2
same,Binding of serum 2 to linear peptides of protein X1 of SARS-CoV Urbani,[1],0.5
same,Binding of serum 2 to looped/cyclic peptide (PEPSCAN-ELISA),[1],0.3
same,Binding of serum 6 to linear peptides of protein X1 of SARS-CoV Urbani,[1],0.5
same,Binding of serum 6 to looped/cyclic peptide (PEPSCAN-ELISA),[1],0.2
same,Binding of serum 37 to linear peptides of protein X1 of SARS-CoV Urbani,[1],0.6
same,Binding of serum 37 to looped/cyclic peptide (PEPSCAN-ELISA),[1],0.4
same,Binding of serum 62 to linear peptides of protein X1 of SARS-CoV Urbani,[1],0.5
same,Binding of serum 62 to looped/cyclic peptide (PEPSCAN-ELISA),[1],0.4
same,Binding of serum London to linear peptides of protein X1 of SARS-CoV Urbani,[1],0.4
same,Binding of serum London to looped/cyclic peptide (PEPSCAN-ELISA),[1],0.2
same,Binding of serum SARS-green to linear peptides of protein X1 of SARS-CoV Urbani,[1],0.2
same,Binding of serum SARS-green to looped/cyclic peptide (PEPSCAN-ELISA),[1],0.1
same,Binding of serum SARS-yellow to linear peptides of protein X1 of SARS-CoV Urbani,[1],0.3
same,Binding of serum SARS-yellow to looped/cyclic peptide (PEPSCAN-ELISA),[1],0.2
same,Binding of a rabbit serum to linear peptides,[2],0.1
same,Binding of a rabbit serum to looped peptides,[2],0.4
same,Binding of Control Serum Blood-Bank to Looped peptides,[3],0.5
same,Binding of Control serum Blood-bank to linear peptides,[3],0.5
same,Binding of Control serum LUMC to linear peptides,[3],0.6
same,Binding of Control serum LUMC to looped peptides,[3],0.5
YMAISPKFTTSLSLH,Binding of serum 1a to linear peptides of protein X2,[1],0.7
same,Binding of serum 1a to looped/cyclic peptides of protein X2 of SARS-CoV Urbani,[1],0.6
same,Binding of serum 1b to linear peptides of protein X2,[1],0.6
same,Binding of serum 1b to looped/cyclic peptides of protein X2 of SARS-CoV Urbani,[1],0.6
same,Binding of serum 2 to linear peptides of protein X2,[1],0.4
same,Binding of serum 2 to looped/cyclic peptides of protein X2 of SARS-CoV Urbani,[1],0.4
same,Binding of serum 6 to linear peptides of protein X2,[1],0.4
same,Binding of serum 6 to looped/cyclic peptides of protein X2 of SARS-CoV Urbani,[1],0.5
same,Binding of serum 37 to linear peptides of protein X2,[1],0.6
same,Binding of serum 37 to looped/cyclic peptides of protein X2 of SARS-CoV Urbani,[1],0.5
same,Binding of serum 62 to linear peptides of protein X2,[1],0.6
same,Binding of serum 62 to looped/cyclic peptides of protein X2 of SARS-CoV Urbani,[1],0.6
same,Binding of serum London to linear peptides of protein X2,[1],0.4
same,Binding of serum London to looped/cyclic peptides of protein X2 of SARS-CoV Urbani,[1],0.4
same,Binding of serum SARS-green to linear peptides of protein X2,[1],0.5
same,Binding of serum SARS-green to looped/cyclic peptides of protein X2 of SARS-CoV Urbani,[1],0.4
same,Binding of serum SARS-yellow to linear peptides of protein X2,[1],0.6
same,Binding of serum SARS-yellow to looped/cyclic peptides of protein X2 of SARS-CoV Urbani,[1],0.4
same,Binding of a rabbit serum to linear peptides,[2],0.3
same,Binding of a rabbit serum to looped peptides,[2],0.5
same,Binding of Control Serum Blood-Bank to Looped peptides,[3],0.7
same,Binding of Control serum Blood-bank to linear peptides,[3],0.7
same,Binding of Control serum LUMC to linear peptides,[3],0.4
same,Binding of Control serum LUMC to looped peptides,[3],0.7
YNRYRIGNYKLNTDH,Binding of serum 1a to linear peptides of protein M of SARS-CoV Urbani,[1],0.7
same,Binding of serum 1a to looped/cyclic peptides of protein M of SARS-CoV Urbani,[1],0.8
same,Binding of serum 1b to linear peptides of protein M of SARS-CoV Urbani,[1],0.6
same,Binding of serum 1b to looped/cyclic peptides of protein M of SARS-CoV Urbani,[1],0.7
same,Binding of serum 2 to linear peptides of protein M of SARS-CoV Urbani,[1],0.4
same,Binding of serum 2 to looped/cyclic peptides of protein M of SARS-CoV Urbani,[1],0.7
same,Binding of serum 6 to linear peptides of protein M of SARS-CoV Urbani,[1],0.5
same,Binding of serum 6 to looped/cyclic peptides of protein M of SARS-CoV Urbani,[1],1.1
same,Binding of serum 37 to linear peptides of protein M of SARS-CoV Urbani,[1],0.5
same,Binding of serum 37 to looped/cyclic peptides of protein M of SARS-CoV Urbani,[1],0.5
same,Binding of serum 62 to linear peptides of protein M of SARS-CoV Urbani,[1],0.4
same,Binding of serum 62 to looped/cyclic peptides of protein M of SARS-CoV Urbani,[1],0.6
same,Binding of serum London to linear peptides of protein M of SARS-CoV Urbani,[1],0.5
same,Binding of serum London to looped/cyclic peptides of protein M of SARS-CoV Urbani,[1],0.6
same,Binding of serum SARS-green to linear peptides of protein M of SARS-CoV Urbani,[1],0.4
same,Binding of serum SARS-green to looped/cyclic peptides of protein M of SARS-CoV Urbani,[1],0.3
same,Binding of serum SARS-yellow to linear peptides of protein M of SARS-CoV Urbani,[1],0.1
same,Binding of serum SARS-yellow to looped/cyclic peptides of protein M of SARS-CoV Urbani,[1],0.7
same,Rabbit serum linear peptides,[2],0.3
same,Rabbit serum looped peptides,[2],0.5
same,Binding of Control Serum Blood-Bank to Looped peptides of the protein M of SARS-CoV Urbani,[3],0.8
same,Binding of Control serum Blood-bank to linear peptides of the protein M of SARS-CoV Urbani,[3],0.5
same,Binding of Control serum LUMC to linear peptides of the protein M of SARS-CoV Urbani,[3],0.6
same,Binding of Control serum LUMC to looped peptides of the protein M of SARS-CoV Urbani,[3],0.9
